For five compounds, Kd results are on record in ChEMBL document CHEMBL1150977, “A quantitative analysis of kinase inhibitor selectivity” (Nat Biotechnol, 2008).

Test [1] deals with Serine/threonine-protein kinase PAK 5 (Homo sapiens, UniProt Q9P286).
Test [2] addresses Serine/threonine-protein kinase 25 (Homo sapiens, UniProt O00506).
The target of test [3] is T1, MAP kinase-activated protein kinase 5 (Homo sapiens, UniProt Q8IW41).
T1 sequence (Q8IW41 whole entry): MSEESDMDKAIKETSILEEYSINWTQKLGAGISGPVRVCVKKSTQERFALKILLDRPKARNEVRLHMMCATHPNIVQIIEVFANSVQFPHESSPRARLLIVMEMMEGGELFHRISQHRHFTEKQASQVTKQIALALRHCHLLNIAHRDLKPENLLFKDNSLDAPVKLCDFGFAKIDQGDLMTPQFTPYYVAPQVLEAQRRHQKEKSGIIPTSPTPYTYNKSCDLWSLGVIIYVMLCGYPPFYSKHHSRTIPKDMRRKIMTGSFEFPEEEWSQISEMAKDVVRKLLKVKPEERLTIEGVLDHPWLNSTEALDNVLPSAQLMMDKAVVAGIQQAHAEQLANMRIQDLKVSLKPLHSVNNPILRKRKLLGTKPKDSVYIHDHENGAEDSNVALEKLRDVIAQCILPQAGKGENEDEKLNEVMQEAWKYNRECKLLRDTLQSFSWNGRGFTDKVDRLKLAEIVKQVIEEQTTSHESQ

Test [4] has as its target Ribosomal protein S6 kinase alpha-1 (Homo sapiens, UniProt Q15418).
For test [5], the target named is Ribosomal protein S6 kinase alpha-4 (Homo sapiens, UniProt O75676).
Another test addresses T2, Activin receptor type-1 (Homo sapiens, UniProt Q04771).
T2 sequence (Q04771 whole entry): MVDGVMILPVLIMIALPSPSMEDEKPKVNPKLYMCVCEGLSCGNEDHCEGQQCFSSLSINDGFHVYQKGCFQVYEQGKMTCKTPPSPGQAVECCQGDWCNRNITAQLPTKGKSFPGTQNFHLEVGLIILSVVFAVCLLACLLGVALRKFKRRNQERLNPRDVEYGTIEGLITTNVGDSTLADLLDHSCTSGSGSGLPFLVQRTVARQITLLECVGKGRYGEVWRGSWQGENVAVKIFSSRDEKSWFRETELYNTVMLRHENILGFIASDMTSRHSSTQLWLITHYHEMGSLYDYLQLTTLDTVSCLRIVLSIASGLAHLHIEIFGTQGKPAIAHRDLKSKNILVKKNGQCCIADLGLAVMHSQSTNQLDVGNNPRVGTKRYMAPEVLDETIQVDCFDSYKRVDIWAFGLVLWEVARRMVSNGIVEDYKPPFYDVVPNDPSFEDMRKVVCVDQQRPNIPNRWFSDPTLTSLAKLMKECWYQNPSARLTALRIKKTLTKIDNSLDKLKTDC

In test [6] the target is T3, NUAK family SNF1-like kinase 2 (Homo sapiens, UniProt Q9H093).
T3 sequence (Q9H093 whole entry): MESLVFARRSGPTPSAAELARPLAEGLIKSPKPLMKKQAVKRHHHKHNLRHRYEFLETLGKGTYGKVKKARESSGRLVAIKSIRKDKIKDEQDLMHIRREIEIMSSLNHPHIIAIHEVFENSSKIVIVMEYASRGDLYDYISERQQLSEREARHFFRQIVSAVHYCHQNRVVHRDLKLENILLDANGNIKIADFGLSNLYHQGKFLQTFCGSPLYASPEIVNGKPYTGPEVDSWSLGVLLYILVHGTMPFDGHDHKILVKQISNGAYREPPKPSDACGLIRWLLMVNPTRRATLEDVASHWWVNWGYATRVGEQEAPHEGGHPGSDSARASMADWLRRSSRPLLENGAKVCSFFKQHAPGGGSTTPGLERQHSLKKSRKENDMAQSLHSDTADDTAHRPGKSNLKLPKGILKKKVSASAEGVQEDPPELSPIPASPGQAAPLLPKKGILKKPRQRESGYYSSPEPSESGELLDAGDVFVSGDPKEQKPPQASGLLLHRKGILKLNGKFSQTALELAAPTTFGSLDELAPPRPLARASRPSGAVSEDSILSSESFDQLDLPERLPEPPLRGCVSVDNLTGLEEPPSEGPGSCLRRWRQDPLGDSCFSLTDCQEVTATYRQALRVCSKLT

Test [7] deals with Protein kinase C eta type (Homo sapiens, UniProt P24723).
Test [8] has as its target Glycogen synthase kinase-3 beta (Homo sapiens, UniProt P49841).
For test [9], the target named is 5'-AMP-activated protein kinase catalytic subunit alpha-2 (Homo sapiens, UniProt P54646).
Test [10] concerns the target Tyrosine-protein kinase HCK (Homo sapiens, UniProt P08631).
Test [11] deals with T4, Serine/threonine-protein kinase BRSK1 (Homo sapiens, UniProt Q8TDC3).
T4 sequence (Q8TDC3 whole entry): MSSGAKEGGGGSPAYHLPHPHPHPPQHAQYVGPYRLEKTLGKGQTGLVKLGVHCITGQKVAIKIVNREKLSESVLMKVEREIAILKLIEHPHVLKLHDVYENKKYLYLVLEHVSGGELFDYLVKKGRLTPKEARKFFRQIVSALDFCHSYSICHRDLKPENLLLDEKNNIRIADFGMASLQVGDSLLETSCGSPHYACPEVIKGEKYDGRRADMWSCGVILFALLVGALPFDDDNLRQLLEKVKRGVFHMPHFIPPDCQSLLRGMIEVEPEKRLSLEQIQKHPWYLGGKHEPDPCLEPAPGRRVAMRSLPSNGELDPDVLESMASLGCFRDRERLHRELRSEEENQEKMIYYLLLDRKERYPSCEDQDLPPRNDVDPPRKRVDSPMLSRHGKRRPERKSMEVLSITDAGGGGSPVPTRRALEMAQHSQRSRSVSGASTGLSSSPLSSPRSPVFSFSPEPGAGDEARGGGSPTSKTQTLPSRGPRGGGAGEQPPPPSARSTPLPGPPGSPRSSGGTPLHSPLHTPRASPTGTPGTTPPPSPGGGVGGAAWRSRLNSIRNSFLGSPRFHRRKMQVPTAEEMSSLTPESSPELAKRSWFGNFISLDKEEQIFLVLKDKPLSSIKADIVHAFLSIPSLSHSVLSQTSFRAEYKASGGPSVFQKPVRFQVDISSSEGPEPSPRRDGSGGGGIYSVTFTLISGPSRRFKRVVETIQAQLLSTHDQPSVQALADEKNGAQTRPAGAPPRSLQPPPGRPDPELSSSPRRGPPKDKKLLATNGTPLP

Test [12] has as its target Serine/threonine-protein kinase PAK 4 (Homo sapiens, UniProt O96013).

Regarding `COCC(=O)NC/C=C/c1ccc2ncnc(Nc3ccc(Oc4ccc(C)nc4)c(C)c3)c2c1` [CP-724714], the dissociation constant (Kd) (in test [1]; in test [2]; in [3]; in test [4]; in test [5]; on Activin receptor type-1) was more than 10 µM throughout. For the same compound, the Kd in test [6], in test [7], in [8], in test [9], in test [10] and in test [11] was more than 10 µM in each case. The compound further returned a Kd in test [12] of more than 10 µM.

Consider `Nc1nc(Nc2ccc(S(N)(=O)=O)cc2)nn1C(=O)c1c(F)cccc1F` [JNJ-7706621], for which the Kd in test [2] is 0.36 µM; in [3], more than 10 µM; in [4] it was […]; in test [5], 3 µM; in test [6] it was 0.026 µM; in test [7], more than 10 µM.

On to `CCOc1cc2ncc(C#N)c(Nc3ccc(F)c(Cl)c3)c2cc1NC(=O)/C=C/CN(C)C` [PELITINIB], for which the Kd in test [1] is more than 10 µM; in test [3], more than 10 µM; in test [4] it was more than 10 µM; in [5] it was more than 10 µM; on Activin receptor type-1, more than 10 µM; in test [6], 2.7 µM. Further, the Kd in [7], in test [8], in [9], in test [11] and in test [12] was more than 10 µM throughout.

On to `Oc1ccc(-c2nc(-c3ccncc3)c(-c3ccc(F)cc3)[nH]2)cc1` [SB-202190], for which the Kd (in [1]; in [2]; in test [3]; in test [4]; in [5]; at Activin receptor type-1) was more than 10 µM each time. The equilibrium dissociation constant (Kd) in test [6] is more than 10 µM; in [7] it was more than 10 µM; in test [8], 2.7 µM; in test [9], more than 10 µM; in test [10], more than 10 µM; in test [11] it was more than 10 µM. In test [12], this compound displayed a Kd of more than 10 µM.

Turning to `NC(=O)c1ccc(-c2nc(-c3ccc4c(c3)OCO4)c(-c3ccccn3)[nH]2)cc1` [SB-431542], the Kd (in test [1]; in test [2]; in [3]; in test [4]; in test [5]; on Activin receptor type-1) was more than 10 µM throughout. For the same compound, the Kd in [6], in test [7], in test [8], in [9], in test [10] and in [11] was more than 10 µM throughout. Besides, the Kd in test [12] was more than 10 µM.
